Results on ten compounds are retold here after patent US20260234099A1, “Endocannabinoid ligands and related analogs” (Northeastern University, priority 2023, published 2026).

The term Ki denotes the dissociation constant of the complex between target and ligand, obtained from inhibition or displacement. What is called EC50 is the concentration giving half of the maximal effect. By Emax is commonly meant the maximal effect, on the per cent scale that the assay sets.

Where two headings read alike, the source gives them in different places. Bounds are passed on as bounds.

Assay [1] has as its target T1, CB1 receptor (Rattus norvegicus, UniProt P20272). Kind of assay: CB1 receptor binding affinity (Ki). Particulars: for binding affinity for CB1 receptor compared to endogenous AEA: vs AEA, Table 5. On the procedure: (§1) Some disclosed compounds were tested for CB1 and CB2 receptor binding affinity (Tables 1, 2, 3, 4, 5). As used herein “binding affinity” is represented by the Ki value. The Ki value is the affinity constant and describes the affinity of the compound for the receptor. […] A detailed description of the methods used to test “binding affinity” of compounds is given in Makriyannis, et al., US 2007/0135388 the content of which is hereby incorporated by reference.

A further assay concerns the target CB1 receptor (rCB1) (Rattus norvegicus, UniProt P20272). Kind of assay: cAMP assay (inhibition of FSK stimulated cAMP), CB1. The assay is classed as cell-based. On the procedure: Further functional characterization of some of the disclosed compounds tested initially for “binding affinity” or for GTPγ-S binding was performed by using the cyclic adenosine monophosphate (cAMP) assay. […] A detailed description of the methods used to test compounds using the cAMP assay is given in Yingpeng, et al. J. Med. Chem. (2018) 61, 8639-8657 the content of which is hereby incorporated by reference. The EC50 values (potency of a test compound) of the functional assays may or may not be accompanied by the E(max) value in tables 1-5 (efficacy of the test compound). E(max)/efficacy is the maximum GTP stimulation or cAMP inhibition levels and is presented as the percentage of maximum response evoked by a standard CB1/CB2 full agonist (e.g., CP-55,940) for reference see the paper cited above.

Assay [2] has as its target T2, CB2 receptor (Homo sapiens, UniProt P34972). Put plainly: CB2 receptor binding affinity (Ki). More on the design: CB2 receptor Ki; CB2 receptor Ki (PMSF); other: with PMSF. The procedure: as §1
Assay [3] has as its target T2, CB2 receptor. Put plainly: hCB2 receptor binding affinity (Ki), Table 7. On the procedure: Some disclosed compounds were tested for CB1 and CB2 receptor binding affinity (Tables 1, 2, 3, 4, 5). As used herein “binding affinity” is represented by the Ki value. The Ki value is the affinity constant and describes the affinity of the compound for the receptor. The lower the Ki value, the higher the affinity of the compound for the receptor. A detailed description of the methods used to test “binding affinity” of compounds is given in Makriyannis, et al., US 2007/0135388 the content of which is hereby incorporated by reference.

In the next assay the target is CB2 receptor (hCB2) (Homo sapiens, UniProt P34972). Kind of assay: cAMP assay (inhibition of FSK stimulated cAMP), CB2. The assay is classed as cell-based. Particulars: class symbols. On the procedure:
FIG. 2A is a graph providing data of the % inhibition of FSK stimulated cAMP for compound 6.1.1 for hCB2.
Further functional characterization of some of the disclosed compounds tested initially for “binding affinity” or for GTPγ-S binding was performed by using the cyclic adenosine monophosphate (cAMP) assay. Key compounds initially characterized functionally using the GTPγ-S assay were also doubly tested using the cAMP assay to unambiguously confirm their functional profiles. The functional potency of the compounds tested using the cyclase assay is also represented by the EC50 (cAMP) value and similarly the lower the EC50 (cAMP) value the higher the potency of the compound for the receptor. A detailed description of the methods used to test compounds using the cAMP assay is given in Yingpeng, et al. J. Med. Chem. (2018) 61, 8639-8657 the content of which is hereby incorporated by reference. The EC50 values (potency of a test compound) of the functional assays may or may not be accompanied by the E(max) value in tables 1-5 (efficacy of the test compound). E(max)/efficacy is the maximum GTP stimulation or cAMP inhibition levels and is presented as the percentage of maximum response evoked by a standard CB1/CB2 full agonist (e.g., CP-55,940) for reference see the paper cited above. If a test compound has an efficacy close to 100% of the standard full agonist, then the test compound is also classified as full agonist.
In general terms: Changes in cAMP serve as a functional read-out for many G protein-coupled receptors.

The target in assay [4] is T1, CB1 receptor. Put plainly: GTPγ-S binding assay, CB1. The assay is classed as biochemical. To be noted: class symbols; read-out: EC50 (GTP) CB1 receptor. On the procedure: The activity of some of the disclosed compounds for the CB1 and CB2 receptors was assessed by using the GTPγ-S binding assay (Tables 2,3,4). As used herein the “effect” of the compound on the GTPγ-S assay is represented by the EC50 (GTP) value. […] Med. Chem. Letters 2006, 16(9), 2437 and Griffin, et al., J. Pharmacol. Exp. Ther. 1998, 285(2), 553-560 the content of which is hereby incorporated by reference.
On the technique in general: GTPγS is a poorly hydrolysed GTP analogue; its binding reports G protein activation.

The mark [5] stands for this setting: with PMSF, read-out: CB1 Receptor Ki with PMSF.
The mark [6] stands for this setting: without PMSF, read-out: CB1 receptor affinity Ki.

T2 sequence (P34972 whole entry): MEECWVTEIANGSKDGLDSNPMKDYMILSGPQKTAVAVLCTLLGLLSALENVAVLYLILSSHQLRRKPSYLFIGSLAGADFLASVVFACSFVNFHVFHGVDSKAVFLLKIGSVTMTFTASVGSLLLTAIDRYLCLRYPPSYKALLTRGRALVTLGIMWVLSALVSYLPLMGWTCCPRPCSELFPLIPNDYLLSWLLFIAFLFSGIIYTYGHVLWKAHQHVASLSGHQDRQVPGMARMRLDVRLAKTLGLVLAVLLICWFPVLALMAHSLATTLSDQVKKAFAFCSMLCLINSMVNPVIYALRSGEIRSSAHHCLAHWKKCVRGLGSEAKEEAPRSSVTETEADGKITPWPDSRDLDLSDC
T1 sequence (P20272 whole entry): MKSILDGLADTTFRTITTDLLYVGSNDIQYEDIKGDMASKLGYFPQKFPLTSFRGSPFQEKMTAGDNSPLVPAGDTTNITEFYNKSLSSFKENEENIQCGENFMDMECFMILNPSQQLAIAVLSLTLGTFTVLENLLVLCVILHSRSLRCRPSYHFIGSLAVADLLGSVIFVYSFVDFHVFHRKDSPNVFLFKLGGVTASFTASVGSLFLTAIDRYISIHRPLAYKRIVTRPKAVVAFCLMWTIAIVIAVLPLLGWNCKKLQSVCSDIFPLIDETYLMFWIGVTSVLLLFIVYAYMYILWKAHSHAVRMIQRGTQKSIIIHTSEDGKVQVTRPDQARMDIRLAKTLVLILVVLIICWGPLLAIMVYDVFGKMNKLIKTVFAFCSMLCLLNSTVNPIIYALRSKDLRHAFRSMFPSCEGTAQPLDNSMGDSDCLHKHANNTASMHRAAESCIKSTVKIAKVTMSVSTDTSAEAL
Sequence of CB1 receptor (rCB1) (P20272 whole entry): as above
Sequence of CB2 receptor (hCB2) (P34972 whole entry): as the sequence (P34972 whole entry) above

As to `C[C@H](/C=C\C/C=C\C/C=C\CCCC(=O)N[C@H](C)CO)/C=C\CCCCCC#N` [Compound 4.1.5a, (S,5Z,8Z,11Z,14Z)-20-Cyano-N—((R)-1-hydroxypropan-2-yl)-13-methylicosa-5,8,11,14-tetraenamide], the Ki on CB1 receptor [1] (setting [5]), at CB1 receptor [1] (setting [6]) and at CB2 receptor [2] (read-out: CB2 receptor Ki) was 0.01 to 10 nM in each case. Moreover, the “functional profile at CB1 (cAMP)” value on CB1 receptor (rCB1) (full or partial agonist) was “partial agonist”. This compound also yielded an EC50 on CB1 receptor (rCB1) (numeric) of 8.7 nM. The compound further yielded an Emax at CB1 receptor (rCB1) (percentage of maximum response of standard full agonist (e.g., CP-55,940)) of 76%.
Turning to `C[C@H](/C=C\C/C=C\C/C=C\CCCC(=O)N[C@H](C)CO)/C=C\CCCCC(F)(F)F` [Compound 4.1.5c], the affinity on CB2 receptor [3] corresponds to a Ki of 3.6 nM. The “fold higher binding affinity for CB2 compared to AM 356” value on CB2 receptor [3] (vs AM 356) was determined as 61 fold. For the same compound, the “fold higher binding affinity for CB2 compared to AMG 315” value at CB2 receptor [3] (vs AMG 315) is on record as 49 fold.
As for `CCCCC/C=C\C/C=C\C/C=C\Cc1ccccc1CCCC(=O)NCCO` [Compound 4.3.4, N-(2-Hydroxyethyl)-4-(2-((2Z,5Z,8Z)-tetradeca-2,5,8-trien-1-yl)phenyl)butanamide], the “binding affinity for CB1 receptor compared to endogenous AEA” value on CB1 receptor [1] is “substantially higher binding affinities”. For the same compound, the Ki at CB1 receptor [1] (setting [5]), on CB1 receptor [1] (setting [6]) and at CB2 receptor [2] (read-out: CB2 receptor Ki) was 10 to 200 nM throughout.
For `CCCCC/C=C\C/C=C\C/C=C\Cc1ccccc1CCCC(=O)N[C@H](C)CO` [Compound 4.3.5, N—((R)-1-Hydroxypropan-2-yl)-4-(2-((2Z,5Z,8Z)-tetradeca-2,5,8-trien-1-yl)phenyl)butanamide], at CB1 receptor [1] (CB1 vs CB2, Tables 1 and 5), the “CB1 over CB2 preference” value was “bind to and stimulate preferentially the CB1 receptors”. The “binding affinity for CB1 receptor compared to endogenous AEA” value on CB1 receptor [1] is “substantially higher binding affinities”. The Ki at CB1 receptor [1] (setting [5]) fell in the range of 10 to 200 nM; at CB1 receptor [1] (setting [6]), 0.01 to 10 nM; at CB2 receptor [2] (read-out: CB2 receptor Ki) it was 10 to 200 nM.
Turning to `CCCCC1(/C=C\C/C=C\C/C=C\C/C=C\CCCC(=O)N[C@H](C)CO)CCCC1` [Compound 4.4.3, (5Z,8Z,11Z,14Z)-15-(1-Butylcyclopentyl)-N—((R)-1-hydroxypropan-2-yl)pentadeca-5,8,11,14-tetraenamide], the Ki at CB1 receptor [1] (setting [5]) is 200 to 1000 nM; at CB2 receptor [2] (read-out: CB2 receptor Ki (PMSF), with PMSF) it was more than 1000 nM.
Regarding `CCCCCc1ccccc1C/C=C\C/C=C\C/C=C\CCCC(=O)N[C@H](C)CO` [Compound 4.6.3, (5Z,8Z,11Z)—N—((R)-1-hydroxypropan-2-yl)-13-(2-pentylphenyl)trideca-5,8,11-trienamide], the Ki on CB1 receptor [1] (setting [5]), on CB1 receptor [1] (setting [6]) and at CB2 receptor [2] (read-out: CB2 receptor Ki) was 10 to 200 nM in each case.
`C[C@H](/C=C\C/C=C\C/C=C\CCCC(=O)N[C@H](C)CO)/C=C\CCCCCO` [Compound 4.7.2]: the Ki on CB1 receptor [1] (setting [6]) and at CB2 receptor [2] (read-out: CB2 receptor Ki) was 10 to 200 nM in each case.
For `C[C@H](/C=C\C/C=C\C/C=C\CCCC(=O)N[C@H](C)CO)/C=C\CCCCCF` [Compound 4.7.4, (S,5Z,8Z,11Z,14Z)-20-Fluoro-N—((R)-1-hydroxypropan-2-yl)-13-methylicosa-5,8,11,14-tetraenamide], the values for the Ki on CB1 receptor [1] (setting [6]) and at CB2 receptor [2] (read-out: CB2 receptor Ki) were 0.01 to 10 nM and 10 to 200 nM, respectively.
Consider `CCCCC/C=C\C/C=C\C/C=C\C/C=C\C1CC[C@@H](C(=O)OC(CO)CO)C1` (stereo partly drawn) [Compound 5.2.2e], for which the EC50 is 200 to 1000 nM at CB2 receptor (hCB2) and more than 1000 nM on CB1 receptor [4].
`CCCCC/C=C\C/C=C\C/C=C\C/C=C\COC(C)C(=O)OC(CO)CO` (stereo not drawn) [Compound 5.3.3, 1,3-Dihydroxypropan-2-yl 2-(((2Z,5Z,8Z,11Z)-heptadeca-2,5,8,11-tetraen-1-yl)oxy)propanoate]: at CB1 receptor [4], the EC50 was more than 1000 nM.
